Converted amounts (≈) assume the structure as drawn.
What was measured:
Assay type in all cases: physicochemical
[1] = Solubility of crystalline forms in simulated gastric fluid (SGF)
From the text: (§1) The UPLC data of the present disclosure were collected on Waters H Class, with photo-diode array detector. The UPLC parameters for purity and solubility test of the present disclosure were as follows: • 1. Column: Waters Xbridge C18, 150×4.6 mm, 5 μm • 2. Mobile phase: A: 0.05% trifluoroacetic acid in water; B: 0.05% trifluoroacetic acid in acetonitrile
Suspend Forms D, AL, and Z of the present disclosure and Form B in the prior art in simulated gastric fluid (SGF) to form suspensions, respectively. After equilibrium for 1 hour, 2 hours and 4 hours, filter the suspensions to form saturated solutions. Determine the concentration of API in corresponding saturated solution by HPLC.

[2] = Crystal habit study (PLM); settings: for Crystal habit (PLM): dispersed in vacuum pump oil; for Powder flow property: inferred from PLM crystal habit
Experimental: The polarized light microscope photos of the present disclosure were taken at room temperature with a Zeiss microscope Axio Scope.A1 equipped with an Axiocam 305 color camera and 5×, 10×, 20× and 50× objective lenses.
Weigh about 10 mg of Forms Z and AL of the present disclosure onto a glass slide, respectively. Disperse each solid with several vacuum pump oil, and then cover with a cover glass. Observe the sample using PLM.

[3] = Solubility of crystalline forms in fasted-state simulated intestinal fluid (FaSSIF)
From the text: as §1
Suspend Forms D and Z of the present disclosure and Form B in the prior art in fasted-state simulated intestinal fluid (FaSSIF) to form suspensions, respectively. After equilibrium for 1 hour, 2 hours and 4 hours, filter the suspensions to form saturated solutions. Determine the concentration of API in corresponding saturated solution by HPLC.

[4] = Hygroscopicity study (DVS); settings: for Water uptake at 80% RH: 25° C.; for Hygroscopicity: class per Chinese Pharmacopoeia 2010
Experimental: The dynamic vapor sorption diagrams of the present disclosure were collected on Intrinsic-type and Intrinsic Plus-type dynamic vapor sorption instruments of SMS company. The process parameters of the dynamic vapor sorption test of the present disclosure were as follows: • Temperature: 25° C. • Protection gas and its flow rate: N2, 200 mL/minute • dm/dt: 0.002%/minute • Minimum dm/dt equilibration time: 10 minutes • Maximum Equilibration Time: 180 minutes • Relative humidity range: 0% RH-95% RH-0% RH • Relative humidity gradient: 10% (0% RH-90% RH-0% RH), 5% (90% RH-95% RH and 95% RH-90% RH).
Weigh approximately 10 mg of Form Z of the present disclosure and Form B in the prior art for DVS test, and then collect the obtained solid for XRPD analysis. The results were summarized in Table 19, DVS plot of Form B was shown in FIG. 29, XRPD overlay of Form B was shown in FIG. 30, DVS plot of Form Z was shown in FIG. 31, and XRPD overlay of Form Z was shown in FIG. 32.
Description and definition of hygroscopicity (see appendix XIX J, guidance for hygroscopicity evaluation of Pharmacopoeia of the People's Republic of China 2010) • Deliquescent: sufficient water is absorbed to form a liquid, • Very hygroscopic: increase in mass is equal to or greater than 15 percent, • Hygroscopic: increase in mass is less than 15 percent and equal to or greater than 2 percent, • Slightly hygroscopic: increase in mass is less than 2 percent and equal to or greater than 0.2 percent. • Non-hygroscopic: increase in mass is less than 0.2 percent.

[5] = Particle size distribution study (laser particle size analyzer); settings: for D10 / D50 / D90 / MV: wet method, Isopar G (0.2% lecithin), sonication 30 s
Experimental: The particle size distribution results of the present disclosure were collected on S3500-type laser particle size analyzer of the Microtrac company. The Microtrac S3500 was equipped with an SDC (Sample Delivery Controller) sampling system. The wet method was used in this test, using Isopar G (containing 0.2% lecithin) as the test dispersion medium. The process parameters of the laser particle size analyzer were as follows.
Approximately 10-30 mg of Form D of the present disclosure and Form B in the prior art were added into 5 mL Isopar G (0.2% lecithin) to form a suspension, respectively. The suspension was mixed well and then loaded into SDC loading system. Adjust the shading intensity to an appropriate range, and then started to collect data after sonication for 30 s. The results were summarized in Table 20, and the particle size distribution diagrams of Form D and Form B were shown in FIGS. 35 to 36, respectively.

Compound	Solubility compared with Form B [1]	Solubility in SGF ([1]; equilibrium 1 hr) [µg/mL]	Solubility in SGF ([1]; equilibrium 2 hr) [µg/mL]	Solubility in SGF ([1]; equilibrium 4 hr) [µg/mL]	Crystal habit (PLM) [2]	Powder flow property [2]	Solubility in FaSSIF ([3]; equilibrium 1 hr) [µg/mL]	Solubility in FaSSIF ([3]; equilibrium 2 hr) [µg/mL]	Solubility in FaSSIF ([3]; equilibrium 4 hr) [µg/mL]	Water uptake at 80% RH [4]	Hygroscopicity [4]	D10 [5] [μm]	D50 [5] [μm]	D90 [5] [μm]	MV [5] [μm]	Solubility compared with Form B [3]	also measured
CC(C)c1nc2cc(O)ccc2c(=O)n1-c1ccc(C#N)cc1 [Form AL, 4-(7-hydroxy-4-oxo-2-propan-2-ylquinazolin-3-yl) benzonitrile]	better solubility than Form B	77.4 (≈ 253 µM)	78.8 (≈ 258 µM)	79.5 (≈ 260 µM)	regular particles	relatively good property on powder flow	–	–	–	–	–	–	–	–	–	–	–
CC(C)c1nc2cc(O)ccc2c(=O)n1-c1ccc(C#N)cc1 [Form B, 4-(7-hydroxy-4-oxo-2-propan-2-ylquinazolin-3-yl) benzonitrile, reference compound]	–	77.5 (≈ 254 µM)	–	–	–	–	33.3 (≈ 109 µM)	34.8 (≈ 114 µM)	35.9 (≈ 118 µM)	0.2485	Slightly hygroscopic (increase in mass is less than 2 percent and equal to or greater than 0.2 percent)	62.3	1085.0	1331.0	795.2	–	solubility at 2 h ([1]; simulated gastric fluid (SGF), simulated gastric fluid, thermodynamic from solid, equilibrium 2 hr): 75.2 µg/mL (≈ 246 µM); solubility at 4 h ([1]; simulated gastric fluid (SGF), simulated gastric fluid, thermodynamic from solid, equilibrium 4 hr): 73.6 µg/mL (≈ 241 µM)
CC(C)c1nc2cc(O)ccc2c(=O)n1-c1ccc(C#N)cc1 [Form D, 4-(7-hydroxy-4-oxo-2-propan-2-ylquinazolin-3-yl) benzonitrile]	better solubility than Form B	98.7 (≈ 323 µM)	95.4 (≈ 312 µM)	103.3 (≈ 338 µM)	–	–	–	88.3 (≈ 289 µM)	87.1 (≈ 285 µM)	–	–	53.9	117.2	175.9	116.2	better solubility than Form B	Uniformity of particle size distribution compared with Form B [5]: more uniform particle size distribution than Form B
CC(C)c1nc2cc(O)ccc2c(=O)n1-c1ccc(C#N)cc1 [Form Z, 4-(7-hydroxy-4-oxo-2-propan-2-ylquinazolin-3-yl) benzonitrile]	better solubility than Form B	79.6 (≈ 261 µM)	90.7 (≈ 297 µM)	86.7 (≈ 284 µM)	regular particles	relatively good property on powder flow	31.4 (≈ 103 µM)	42.7 (≈ 140 µM)	–	0.0303	Non-hygroscopic (increase in mass is less than 0.2 percent)	–	–	–	–	better solubility than Form B	solubility at 4 h ([3]; fasted-state simulated intestinal fluid (FaSSIF), thermodynamic from solid, equilibrium 4 hr): 56.1 µg/mL (≈ 184 µM); Hygroscopicity compared with Form B [4]: relatively lower hygroscopicity than Form B
